The record followed here is patent EP2633864A1, “Clip inhibitors and methods of modulating immune function” (The Regents of the University of Colorado, priority 2008, dated 2010).

For one assay, the system named is mouse splenic B cells. The experiment in a line: TLR ligand induced ectopic CLIP on mouse splenic B cells in vitro (15G4 anti-CLIP/I-Ab versus B220). Type of assay: cell-based. The conditions noted are these: treatment in vitro; figure 12d. The text has this: Mouse splenocytes or T-depleted splenocytes were red cell depleted using Geys Solution, and cells were counted. For T-depleted B cell preparations, B cells were separated by discontinuous Percoll (Pharmacia LKB Biotechnology, Piscataway, NJ) gradients (13). Those cells layering at the 1.079/1.085 g/ml interface (1.079 < ρ ≤ 1.085) are designated throughout as resting B cells. Cells layering at the BSS/1.066 g/ml interface (ρ ≤ 1.066) are designated as activated. Viable cells from this latter interface were isolated using Lympholyte-M (Cedarlane Laboratories, Ltd., Hornby, Ontario, Canada). Cells from each layer were harvested, washed, and resuspended at 10^7 cells/ml in PBS containing 5% fetal calf serum.
Total splenocytes, from either B6.129, Ii-deficient, or H2M-deficient mice were cultured with LPS for 24, 48, 72, or 96 hours as indicated. Cells were harvested and stained by two-color fluorescence using 15G4-FITC anti-mouse CLIP/I-A^b versus anti-mouse B220 PE. […]
Freshly isolated splenocytes, single cell suspensions of lymph node cells, resting (or activated) B cells, or primed B cells were isolated from B6.129, Ii-deficient, or H2M-deficient mice and cultured in 24 well plates in complete RPMI medium, with or without the appropriate Toll ligand, at 10^6 cells/ml. […] Cells were stained by two-color fluorescence using 15G4-FITC anti-mouse CLIP/I-A^b versus anti-mouse B220 PE. […]

For the next assay, the system named is B cell surface CLIP. The experiment in a line: Effect on B cell surface CLIP (Figure 4). The class given is cell-based.

Turning to `CCOCc1nc2c(N)nc3ccccc3c2n1CC(C)(C)O` [R848, imidazoquinoline resiquimod], the “exogenous CLIP expression on the activated mouse B cells” value in the assay on mouse splenic B cells is reported as “resulted in exogenous CLIP expression”.
With `OC[C@H]1OC(O)C[C@@H](O)[C@@H]1O` (some centres unmarked) [2-Deoxyglucose, 2-deoxyglucose], the “B cell surface CLIP” value in the assay with B cell surface CLIP is given as “affects B cell surface CLIP”.
